Reference: PubChem BioAssay (NCI)
“And” between values parts separate entries of the source, which are not always exact repeats. Equal entries are not always repeated.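 Compound exposure: 48 hours, 5 concentrations, 96-well plates. GI50 is the concentration that inhibits growth by half. TGI: total growth inhibition.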

How the values were obtained:
Assay in all cases: NCI tumour cell line growth inhibition, 48 h
[1] = system: SR leukemia
[2] = system: MOLT-4 leukemia
[3] = system: HL-60(TB) leukemia
[4] = system: SW-620 colon
[5] = system: SN12C renal
[6] = system: COLO 205 colon
[7] = system: HOP-62 NSCLC
[8] = system: SK-OV-3 ovarian
[9] = system: KM12 colon
[10] = system: MDA-MB-435

Compound | GI50 [1] [nM] | TGI [1] [µM] | GI50 [2] [nM] | TGI [2] [µM] | GI50 [3] [nM] | TGI [3] [µM] | GI50 [4] [nM] | TGI [4] [µM] | GI50 [5] [nM] | TGI [5] [µM] | GI50 [6] [µM] | TGI [6] [µM] | GI50 [7] [µM] | TGI [7] [µM] | GI50 [8] [µM] | TGI [8] [µM] | GI50 [9] | TGI [9] [µM] | GI50 [10] [nM] | TGI [10] [µM]
CCSc1ccc(C2C(Br)C(=O)N2c2cc(OC)c(OC)c(OC)c2)cc1 (centres undefined) | 76.5 | 26.3 | 347 | 88.9 | 214 | 0.527 | 236 | 20.3 | 925 | 21 | 0.23 | 0.823 | 0.336 | > 100 | 0.392 | > 100 | 202 nM | > 100 |  | 
COc1cc(NC(=O)C2=C(N3CCOCC3)/C(=C/c3ccc(Cl)cc3)CC2)cc(OC)c1OC |  |  | > 100000 | > 100 | > 100000 | > 100 | > 100000 | > 100 | 94300 | > 100 | > 100 | > 100 | 4.66 | 21.2 | 21.7 | 62.8 | > 100000 nM | > 100 | > 100000 | > 100
O=S1Nc2c(Cl)cc(Cl)c(Cl)c2S1 (centres undefined) |  | > 100 |  | > 100 |  | > 100 |  | 21.1 |  | > 100 |  | > 100 |  | > 100 |  | > 100 |  | > 100 |  | 
C=CC1=C(C)C2=NC1=CC1=NC(=C(CC)/C1=C\O)C=C1N=C3C(=C1C)C(=O)[C@H](C(=O)OC)C3=C1NC(=C2)[C@@H](C)[C@@H]1CCC(=O)O |  |  |  | > 100 |  | 92.3 |  | > 100 |  | > 100 |  | > 100 |  |  |  | > 100 |  | > 100 |  | > 100
Cn1cccc1/C=C/c1cc(Br)c(/C=C/c2cccn2C)cc1Br |  |  |  | 43.2 |  | 32.4 |  | 56.3 |  | 72.4 |  | 55 |  |  |  | 30.3 |  | 21.7 |  | 
Cc1cccc2c(O)cc(=O)oc12 |  | > 100 |  | > 100 |  | > 100 |  | > 100 |  | > 100 |  |  |  | > 100 |  | > 100 |  | > 100 |  | 
CC(=O)[O-].O=C([CH-]C(=O)c1ccccc1)c1ccccc1.O=C([CH-]C(=O)c1ccccc1)c1ccccc1.[Sm+3] |  |  | 2410 | 21.2 | 1660 | 7.08 | 2710 | 23.5 | 6230 | 24.8 | 7.89 | 22.8 | 1.96 | 9.04 | 6.18 | 37.4 | 1630 nM | 21.2 |  | 
CCC[CH2][Sn]1([CH2]CCC)[O]CC(C)[O]1 (centres undefined) | 515 | 2.27 | 560 | 3 | 661 | 2.62 | 460 | 1.83 | 1390 | 2.78 | 1.01 | 2.29 | 2.63 | 6.62 | 3.56 | 10.4 | 2100 nM | 6.23 |  | 
C/C=N\N1C(=O)c2ccccc2C1=O |  | > 100 |  | > 100 |  | > 100 |  | > 100 |  | > 100 |  |  |  | > 100 |  |  |  | > 100 |  | 
O=NN(CCCl)C(=O)NC1CCC(CC2CCC(NC(=O)N(CCCl)N=O)CC2)CC1 (centres undefined) |  | 88.7 |  | 47.8 |  | > 100 |  | > 51.3 |  | > 73.5 |  | > 88.1 |  | 82.3 |  | > 86.4 |  | > 100 |  | 
O=C(CCCCC(=O)N/N=C\c1ccccc1O)N/N=C\c1ccccc1O | 2840 | > 100 | 3010 | > 100 | 3070 | > 100 |  |  | 4500 | > 100 | 3.67 | > 100 | 4.12 | 71.8 | 5.63 | > 100 |  |  |  | 
Cn1c(=O)c2/c(n(C)c1=O)=N\C=c1\c(=O)n(C)c(=O)n(C)\c1=N\C=2 |  |  |  | > 100 |  | > 100 |  | > 100 |  | > 100 |  | > 100 |  | > 100 |  |  |  | > 100 |  | 
CN(C)CC/C(=N\Nc1ccc(Cl)cc1Cl)c1ccccc1 |  | 32.3 |  | 42 |  | 21.6 |  | 29.5 |  | 25.1 |  | 29.2 |  | 30.3 |  | 24.8 |  | 31.2 |  | 
CCN(CC)c1ccc(/C=C/C=C2\NC(=O)NC2=O)cc1 | 446 | > 100 | 6490 | > 100 | 3060 | > 100 | 3770 | > 100 | 9410 | > 100 | 3.22 | 16.2 | 3.64 | > 100 | 7.6 | > 100 | 1850 nM | 21.3 |  | 
CC#Cc1nc(Nc2cc(C)[nH]n2)c2ccccc2n1 | 5070 | > 100 | 5330 | > 100 |  |  | 4540 | 32.4 | 3080 | 10.4 | 3.26 | 10.3 | 12.4 | 39.7 | 5.19 | 61.3 | 4380 nM and 2400 nM | 12.4 | 3180 | 13.3
Brc1cc2c(cc1Br)CN(c1ccccc1)C2 |  |  |  | > 100 |  | > 100 |  | > 100 |  | > 100 |  | > 100 |  | > 100 |  | > 100 |  | > 100 |  | 
CCc1cccc(C)c1NC(=O)CC1C(=O)Nc2ccccc2S1(=O)=O (centres undefined) |  | 23.8 |  | 36 |  | 40.2 |  | 29.3 |  | 63.6 |  |  |  |  |  |  |  |  |  | 
NNC(=O)C(=O)N/N=C(\CCC(=O)Nc1ccc(Cl)cc1)Cc1nc2ccccc2s1 |  | 68.5 |  | > 100 |  | > 100 |  | > 100 |  | > 100 |  | > 100 |  | > 100 |  | > 100 |  | > 100 |  | 

Compound | GI50 [1] [nM] | TGI [1] [µM] | GI50 [2] [nM] | TGI [2] [µM] | GI50 [3] [nM] | TGI [3] [µM] | GI50 [4] [nM] | TGI [4] [µM] | GI50 [5] [nM] | TGI [5] [µM] | GI50 [6] [µM] | TGI [6] [µM] | GI50 [7] [µM] | TGI [7] [µM] | GI50 [8] [µM] | TGI [8] [µM] | GI50 [9] | TGI [9] [µM] | GI50 [10] [nM] | TGI [10] [µM]
N.N.O=P([O-])([O-])C1(P(=O)([O-])[O-])CCCCCN1.[Pt+2] |  |  | > 100000 | > 100 | > 100000 | > 100 | > 100000 | > 100 | > 100000 | > 100 | > 100 | > 100 | > 100 | > 100 | > 100 | > 100 | > 100000 nM | > 100 |  | 
CC(=O)[CH-]C(C)=O.CC(=O)[CH-]C(C)=O.CC[O-].CC[O-].[Ti+4] |  |  | > 100000 | > 100 | > 100000 | > 100 | > 100000 | > 100 | > 100000 | > 100 | > 100 | > 100 | > 100 | > 100 | > 100 | > 100 | > 100000 nM | > 100 |  | 
CC(=O)c1nc2ccccc2n1CC(=O)c1cccc(Cl)c1 | 121 | 1.48 | 897 | 26.7 | 144 | 0.61 | 278 | > 100 | 838 | > 100 | 16.1 | > 79.1 | 1.69 | > 56.5 | 1.27 | > 100 | 779 nM | > 43.4 |  | 
O=C(CCC(=O)C1CCC/C1=N/O)Nc1ccc(Cl)cc1 (centres undefined) |  | > 100 |  | > 100 |  | > 100 |  | > 100 |  | > 100 |  | > 100 |  | > 100 |  | > 100 |  | > 100 |  | 
C=C1C(=O)O[C@H]2[C@H]1CC/C(COC(=O)NCc1ccc(Cn3c(=O)sn(-c4ccccc4)c3=O)cc1)=C\CC[C@@]1(C)O[C@@H]21 |  |  | 2200 | 7.09 |  |  | 1910 | 3.78 | 2140 | 5.1 | 1.77 | 3.44 | 12.4 | 26.3 | 14.1 | 27.4 | 3460 nM | 12.7 | 2070 | 4.2
Cc1ccc(C(=O)CC2=Nc3nnc(CCCCCCCc4nnc5n4C(=O)C(CC(=O)c4ccc(C)cc4)=N5)n3C2=O)cc1 |  | > 100 |  | > 100 |  | > 100 |  | > 100 |  | > 100 |  | > 100 |  | > 100 |  | > 100 |  | > 100 |  | 
CCCCCn1c(C)cc(/C=C\c2ccc3cc(C)ccc3[n+]2C)c1C |  |  | 76.9 | 0.327 | 29.6 | 0.128 |  |  |  |  |  |  | 0.283 | 0.98 | 0.124 | 0.853 | 83.6 nM | 1.21 | 116 | 1.09
O=C1/C(=C/c2ccc(Br)cc2)CCC/C1=C\c1ccc(Br)cc1 |  |  |  | 23.5 |  | 13.5 |  | 89 |  | 53 |  | 28.4 |  | 53.3 |  | > 100 |  | 10.9 |  | 
COc1cc2c3c(n(C)c(=O)c2cc1OC)-c1cc2c(cc1/C3=C\CCNCCCN)OCO2 |  |  | 364 | 44.4 | 927 | 8.03 |  |  | 1180 | 8.41 | 0.487 | 15.4 | 3.85 | 15.6 | 2.73 | 11.7 | 1410 nM | 10.5 | 2480 | 15.9
O=[N+]([O-])c1ccc(C=NC23CC4CC(CC(C4)C2)C3)cc1 |  |  |  | > 100 |  | > 100 |  |  |  | > 100 |  | > 100 |  | > 100 |  | > 100 |  | > 100 |  | 
OCCN1CCN(CC/C=C2/c3ccccc3Sc3ccc(Cl)cc32)CC1 |  | 34.3 |  | 26.8 |  | 16 |  | 24.6 |  | 26 |  | 23.3 |  | 29.7 |  | 29.3 |  | 23.2 |  | 
CC(=O)N/C(=C\c1ccc(Cc2nc3c([nH]2)C(=O)c2ccccc2C3=O)cc1)c1nc2c([nH]1)C(=O)c1ccccc1C2=O |  |  |  | > 100 |  | > 100 |  | > 100 |  | > 100 |  | > 100 |  | > 100 |  | > 100 |  | > 100 |  | 
COc1ccc2ccc3oc([N+](=O)[O-])cc3c2c1 | 82.7 | 11.7 | 74.5 | > 100 |  |  | 236 | 2.14 | 311 | 5.32 | 0.157 | 0.432 | 1.03 | 6.34 | 0.206 | 0.894 | 417 nM | 2.09 | 116 | 0.247
N#CCC(=O)N1CCCCCCC1 |  |  |  |  |  | 78 |  | 21.3 |  | > 100 |  | 28.9 |  | > 100 |  | > 100 |  | > 100 |  | 
CCN(CC)CCNC(=O)c1cccc2nc3ccccc3nc12 |  |  |  | 37.3 |  |  |  | > 47.1 |  | > 100 |  | > 41.4 |  | 33.8 |  | > 100 |  | 45.8 |  | 
C[C@]12CCC(=O)C=C1CC[C@@H]1C2CC[C@]2(C)c3nn(-c4ccccc4)nc3CC12 (some centres undefined) |  |  |  | > 100 |  | > 100 |  | > 100 |  | > 100 |  | > 100 |  | > 100 |  | > 100 |  | > 100 |  | 
COC(=O)C(C)NC(=O)c1ccccc1I(OS(=O)(=O)C(F)(F)F)c1ccccc1 (centres undefined) |  |  | 42300 | > 85.1 |  |  | 20900 | 44 | 15400 | 32.4 | 23.6 | 45.9 | 29.5 | 90.1 | 23.6 | 56.5 | 17700 nM | 38.7 | > 41300 | > 57.1
O=C1C(Cl)=C(Nc2cccc(O)c2)C(=O)N1Cc1ccc(Cl)cc1Cl | 1880 | 11.9 | 3220 | 19.2 |  |  | 565 | 15.7 | 2670 | 15.1 | 3.11 | 30.2 | 14.4 | 30.5 | 9.43 | 23.7 | 10100 nM | 25.2 | 6720 | 19.5
